In ChEMBL document CHEMBL3045193, “Synthesis and Herbicidal Activity of 1H-2, 3-Benzoxazine Derivatives” (J Pestic Sci, 2002):

Experiments:
Persicaria lapathifolia [1] = assay: Herbicidal activity against Persicaria lapathifolia assessed as killing at 1 kg/ha; type: functional
Gossypium hirsutum [2] = assay: Toxicity in Gossypium hirsutum (cotton) assessed as killing at 2 kg/ha by crop selectivity assay; type: organism-based; conditions: in vivo
Glycine max [3] = assay: Toxicity in Glycine max (soybean) assessed as killing at 2 kg/ha by crop selectivity assay; type: organism-based; conditions: in vivo
Digitaria ciliaris [4] = assay: Herbicidal activity against Digitaria ciliaris assessed as killing at 2 kg/ha; type: functional
Glycine max [5] = assay: Toxicity in Glycine max (soybean) assessed as killing at 1 kg/ha by crop selectivity assay; type: organism-based; conditions: in vivo
Echinochloa crus-galli [6] = assay: Herbicidal activity against Echinochloa crus-galli (barnyard grass) assessed as killing at 2 kg/ha; type: functional
Triticum aestivum [7] = assay: Toxicity in Triticum aestivum (wheat) plant assessed as killing at 2 kg/ha by crop selectivity assay; type: organism-based; conditions: in vivo
Echinochloa crus-galli [8] = assay: Herbicidal activity against Echinochloa crus-galli (barnyard grass) assessed as killing at 1 kg/ha; type: functional
Amaranthus viridis [9] = assay: Herbicidal activity against Amaranthus viridis assessed as killing at 1 kg/ha; type: functional
Persicaria lapathifolia [10] = assay: Herbicidal activity against Persicaria lapathifolia assessed as killing at 2 kg/ha; type: functional
Digitaria ciliaris [11] = assay: Herbicidal activity against Digitaria ciliaris assessed as killing at 1 kg/ha; type: functional
Amaranthus viridis [12] = assay: Herbicidal activity against Amaranthus viridis assessed as killing at 2 kg/ha; type: functional
Gossypium hirsutum [13] = assay: Toxicity in Gossypium hirsutum (cotton) assessed as killing at 1 kg/ha by crop selectivity assay; type: organism-based; conditions: in vivo
Triticum aestivum [14] = assay: Toxicity in Triticum aestivum (wheat) plant assessed as killing at 1 kg/ha by crop selectivity assay; type: organism-based; conditions: in vivo

SMILES | Activity (Digitaria ciliaris [4]) [%] | Activity (Echinochloa crus-galli [6]) [%] | Activity (Persicaria lapathifolia [10]) [%] | Activity (Amaranthus viridis [12]) [%] | further results
Fc1ccc2c(c1)C(c1ccc(F)c(Br)c1)=NOC2 | 100 | 100 | 80 | 100 | Activity (Persicaria lapathifolia [1]): 60%; Activity (Gossypium hirsutum [2]): 0%; Activity (Glycine max [3]): 0%; Activity (Glycine max [5]): 0%; Activity (Triticum aestivum [7]): 20%; Activity (Echinochloa crus-galli [8]): 100%; Activity (Amaranthus viridis [9]): 80%; Activity (Digitaria ciliaris [11]): 100%; Activity (Gossypium hirsutum [13]): 0%
Clc1ccc(C2=NOCc3ccccc32)cc1Cl | 100 | 80 | – | – | –
Clc1ccccc1C1=NOCc2ccccc21 | 0 | 0 | 0 | 0 | –
O=[N+]([O-])c1cccc(C2=NOCc3ccccc32)c1 | 60 | 40 | – | – | –
Fc1ccc(C2=NOCc3c(Cl)cccc32)cc1Cl | 0 | 0 | – | – | –
Clc1cc(Cl)cc(C2=NOCc3ccccc32)c1 | 0 | 0 | – | – | –
Cc1cc(C2=NOCc3ccccc32)on1 | 0 | 0 | 0 | 0 | –
Clc1cccc(C2=NOCc3ccccc32)c1Cl | 0 | 0 | – | – | –
Cc1cc(C2=NOCc3ccccc32)no1 | 0 | 0 | 0 | 0 | –
Fc1cccc(C2=NOCc3ccccc32)c1 | 60 | 20 | – | – | –
Fc1ccc(C2=NOCc3c(F)cccc32)cc1Cl | 100 | 60 | – | – | –
Fc1ccc(C2=NOCc3ccccc32)cc1F | 80 | 80 | – | – | –
Fc1ccc(C2=NOCc3ccccc32)cc1Cl | 100 | 100 | 100 | 90 | Activity (Persicaria lapathifolia [1]): 100%; Activity (Gossypium hirsutum [2]): 20%; Activity (Glycine max [3]): 0%; Activity (Glycine max [5]): 0%; Activity (Triticum aestivum [7]): 20%; Activity (Echinochloa crus-galli [8]): 100%; Activity (Amaranthus viridis [9]): 80%; Activity (Digitaria ciliaris [11]): 100%; Activity (Gossypium hirsutum [13]): 0%
Fc1ccc2c(c1)CON=C2c1ccc(F)c(Cl)c1 | 100 | 50 | – | – | –
Clc1ccc(Cl)c(C2=NOCc3ccccc32)c1 | 0 | 0 | – | – | –
Fc1ccc(C2=NOCc3ccccc32)cc1C(F)(F)F | 100 | 90 | – | – | –
Fc1ccc(C2=NOCc3ccc(Cl)cc32)cc1Cl | 100 | 90 | – | – | –
Clc1ccc(C2=NOCc3ccccc32)cc1 | 20 | 40 | 0 | 20 | –

SMILES | Activity (Digitaria ciliaris [4]) [%] | Activity (Echinochloa crus-galli [6]) [%] | Activity (Persicaria lapathifolia [10]) [%] | Activity (Amaranthus viridis [12]) [%] | further results
Fc1ccc2c(c1)CON=C2c1ccc(F)c(Br)c1 | 100 | 20 | – | – | –
Fc1ccc(C2=NOCc3cc(Cl)ccc32)cc1Cl | 60 | 0 | – | – | –
N#Cc1cccc(C2=NOCc3ccccc32)c1 | 40 | 20 | – | – | –
Fc1ccc(C2=NOCc3ccccc32)cc1Br | 100 | 100 | – | – | –
Clc1ccc(C2=NOCc3ccccc32)s1 | 40 | 20 | 20 | 20 | –
Cn1ccnc1C1=NOCc2ccccc21 | 0 | 0 | 0 | 0 | –
Ic1cccc(C2=NOCc3ccccc32)c1 | 60 | 60 | – | – | –
COc1cccc(C2=NOCc3ccccc32)c1 | 20 | 0 | – | – | –
Brc1cccc(C2=NOCc3ccccc32)c1 | 100 | 80 | – | – | –
CCCCCCCC(=O)Oc1c(I)cc(C#N)cc1I [IOXYNIL OCTANOATE] | 80 | 90 | 90 | 100 | Activity (Persicaria lapathifolia [1]): 90%; Activity (Gossypium hirsutum [2]): 0%; Activity (Glycine max [3]): 20%; Activity (Glycine max [5]): 0%; Activity (Triticum aestivum [7]): 0%; Activity (Triticum aestivum [14]): 0%; Activity (Echinochloa crus-galli [8]): 80%; Activity (Amaranthus viridis [9]): 100%; Activity (Digitaria ciliaris [11]): 80%; Activity (Gossypium hirsutum [13]): 0%
Clc1cc(C2=NOCc3ccccc32)ccn1 | 60 | 80 | 60 | 60 | –
Fc1cc(C2=NOCc3ccccc32)ccc1Cl | 90 | 60 | – | – | –
Clc1cccc(C2=NOCc3ccccc32)c1 | 100 | 90 | 60 | 60 | –
c1ccc(C2=NOCc3ccccc32)cc1 | 20 | 0 | – | – | –
FC(F)(F)c1cccc(C2=NOCc3ccccc32)c1 | 90 | 70 | – | – | –
Fc1ccc2c(c1)C(c1ccc(F)c(Cl)c1)=NOC2 | 100 | 60 | – | – | –
Oc1cccc(C2=NOCc3ccccc32)c1 | 0 | 0 | – | – | –
Cc1cccc(C2=NOCc3ccccc32)c1 | 60 | 40 | – | – | –
